Assay results from patent publication US8124637B2, “Anthra [1, 2-d]imidazole-6,11-dione derivatives, preparation method and application thereof” (National Defense Medical Center, priority 2010, dated 2012).

How the values were obtained:
[1] = test system: 60 kinds of different human cancer cells; assay: NCI 60-cell drug screen, one dose, whole panel; assay type: cell-based; details: mean over the tested cell lines, 1.00E−5 Molar
Description: (§1) In brief, cellular protein levels were determined after 48 hours of drug exposure by sulforhodamine B colorimetry.
(§2) The screening system in United State National Cancer Institute (NCI) consists of 60 kinds of different human cancer cells, which can be used to assay the growth-inhibiting ability or cell toxicity of a compound against various cancer and tumor at a certain concentration. The NCI had selected 6 compounds synthesized above, and performed cell toxicity assay against 60 kinds of cancer cell strains (Table 2) (DTP Human Tumor Cell Line Screen), in which each compound was assayed at a certain concentration to observe its inhibition ability or cell toxicity against various kinds of cancer and tumor.

in vitro = details: human, Relative MTT viability (%)
Description: (§3) Further, cells were subjected to MTT assay to compare the relative toxicity or effect of each compound on cell proliferation and activity.
(§4) The above-described cells are cultured in a 96-well plate, to which was added with 25 μl MTT solution, and cultured in a 37° C. carbon dioxide incubator for 4 hours. Then, 100 μl Lysis buffer is added and incubated in a 37° C. carbon dioxide incubator overnight. An ELISA reader (Bio-Rad Model 450) is used to read optical density (O.D.) at 550 nm.
(§5) After being subjected to different compound treatments for 72 hours, cells were treated with a fixed amount of MTT solution for 28 hours. Then, DMSO was used to dissolve back formazan, an O. D. value was detected at wavelength in the range of 550/670 nm, and calculated accordingly the cell survival rate (as shown in Table 1).

EKVX = assay: NCI 60-cell drug screen, one dose; assay type: cell-based, human; details: Non-Small Cell Lung Cancer EKVX, 1.00E−5 Molar
Description: as §1, §2

HCT-116 = assay: NCI 60-cell drug screen, one dose; assay type: cell-based, human; details: Colon Cancer HCT-116, 1.00E−5 Molar
Description: as §1, §2

KM12 = assay: NCI 60-cell drug screen, one dose; assay type: cell-based, human; details: Colon Cancer KM12, 1.00E−5 Molar
Description: as §1, §2

OVCAR-8 = assay: NCI 60-cell drug screen, one dose; assay type: cell-based, human; details: Ovarian Cancer OVCAR-8, 1.00E−5 Molar
Description: as §1, §2

NCI-H322M = assay: NCI 60-cell drug screen, one dose; assay type: cell-based, human; details: Non-Small Cell Lung Cancer NCI-H322M, 1.00E−5 Molar
Description: as §1, §2

SK-MEL-5 = assay: NCI 60-cell drug screen, one dose; assay type: cell-based, human; details: Melanoma SK-MEL-5, 1.00E−5 Molar
Description: as §1, §2

NCI/ADR-RES = assay: NCI 60-cell drug screen, one dose; assay type: cell-based, human; details: Ovarian Cancer NCI/ADR-RES, 1.00E−5 Molar
Description: as §1, §2

SNB-19 = assay: NCI 60-cell drug screen, one dose; assay type: cell-based, human; details: CNS Cancer SNB-19, 1.00E−5 Molar
Description: as §1, §2

CCRF-CEM = assay: NCI 60-cell drug screen, one dose; assay type: cell-based, human; details: Leukemia CCRF-CEM, 1.00E−5 Molar
Description: as §1, §2

SR = assay: NCI 60-cell drug screen, one dose; assay type: cell-based, human; details: Leukemia SR, 1.00E−5 Molar
Description: as §1, §2

M14 = assay: NCI 60-cell drug screen, one dose; assay type: cell-based, human; details: Melanoma M14, 1.00E−5 Molar
Description: as §1, §2

MCF7 = assay: NCI 60-cell drug screen, one dose; assay type: cell-based, human; details: Breast Cancer MCF7, 1.00E−5 Molar
Description: as §1, §2

A549/ATCC = assay: NCI 60-cell drug screen, one dose; assay type: cell-based, human; details: Non-Small Cell Lung Cancer A549/ATCC, 1.00E−5 Molar
Description: as §1, §2

SK-MEL-28 = assay: NCI 60-cell drug screen, one dose; assay type: cell-based, human; details: Melanoma SK-MEL-28, 1.00E−5 Molar
Description: as §1, §2

BT-549 = assay: NCI 60-cell drug screen, one dose; assay type: cell-based, human; details: Breast Cancer BT-549, 1.00E−5 Molar
Description: as §1, §2

SF-295 = assay: NCI 60-cell drug screen, one dose; assay type: cell-based, human; details: CNS Cancer SF-295, 1.00E−5 Molar
Description: as §1, §2

SF-539 = assay: NCI 60-cell drug screen, one dose; assay type: cell-based, human; details: CNS Cancer SF-539, 1.00E−5 Molar
Description: as §1, §2

NCI-H226 = assay: NCI 60-cell drug screen, one dose; assay type: cell-based, human; details: Non-Small Cell Lung Cancer NCI-H226, 1.00E−5 Molar
Description: as §1, §2

PC-3 = assay: NCI 60-cell drug screen, one dose; assay type: cell-based, human; details: Prostate Cancer PC-3, 1.00E−5 Molar
Description: as §1, §2

SK-OV-3 = assay: NCI 60-cell drug screen, one dose; assay type: cell-based, human; details: Ovarian Cancer SK-OV-3, 1.00E−5 Molar
Description: as §1, §2

HL-60(TB) = assay: NCI 60-cell drug screen, one dose; assay type: cell-based, human; details: Leukemia HL-60(TB), 1.00E−5 Molar
Description: as §1, §2

MDA-MB-231/ATCC = assay: NCI 60-cell drug screen, one dose; assay type: cell-based, human; details: Breast Cancer MDA-MB-231/ATCC, 1.00E−5 Molar
Description: as §1, §2

LOX IMVI = assay: NCI 60-cell drug screen, one dose; assay type: cell-based, human; details: Melanoma LOX IMVI, 1.00E−5 Molar
Description: as §1, §2

MDA-MB-435 = assay: NCI 60-cell drug screen, one dose; assay type: cell-based, human; details: Melanoma MDA-MB-435, 1.00E−5 Molar
Description: as §1, §2

SK-MEL-2 = assay: NCI 60-cell drug screen, one dose; assay type: cell-based, human; details: Melanoma SK-MEL-2, 1.00E−5 Molar
Description: as §1, §2

MOLT-4 = assay: NCI 60-cell drug screen, one dose; assay type: cell-based, human; details: Leukemia MOLT-4, 1.00E−5 Molar
Description: as §1, §2

COLO 205 = assay: NCI 60-cell drug screen, one dose; assay type: cell-based, human; details: Colon Cancer COLO 205, 1.00E−5 Molar
Description: as §1, §2

HCC-2998 = assay: NCI 60-cell drug screen, one dose; assay type: cell-based, human; details: Colon Cancer HCC-2998, 1.00E−5 Molar
Description: as §1, §2

[2] = MTT assay (relative cell survival), H1299; details: human, H1299 non-small cell lung cancer cells (PhTERT-SEAP), Relative MTT viability (%)
Description: as §3, §4, §5

SMILES: O=C1c2ccccc2C(=O)c2c1ccc1nc(CN3CCN(c4ccccc4)CC3)[nH]c21 [CL27, 2-((4-phenylpiperazin-1-yl)methyl)-1H-anthra[1,2-d]imidazole-6,11-dione]
- Growth Percent, Mean [1]: 90.15%
- viability at 72 h, 1 µM (in vitro): 90.2 ± 3.86%
- viability at 72 h, 10 µM (in vitro): 54.4%
- viability at 72 h, 100 µM (in vitro): 18.1%
- Growth Percent (EKVX): 88.70%
- Growth Percent (HCT-116): 78.28%
- Growth Percent (KM12): 85.80%
- Growth Percent (OVCAR-8): 80.89%
- Growth Percent (NCI-H322M): 91.96%
- Growth Percent (SK-MEL-5): 74.84%
- Growth Percent (NCI/ADR-RES): 80.36%
- Growth Percent (SNB-19): 103.62%
- Growth Percent (CCRF-CEM): 74.42%
- Growth Percent (SR): 43.11%
- Growth Percent (M14): 106.33%
- Growth Percent (MCF7): 66.08%
- Growth Percent (A549/ATCC): 111.76%
- Growth Percent (SK-MEL-28): 127.46%
- Growth Percent (BT-549): 110.22%
- Growth Percent (SF-295): 105.37%
- Growth Percent (SF-539): 112.36%
- Growth Percent (NCI-H226): 82.98%
- Growth Percent (PC-3): 77.91%
- Growth Percent (SK-OV-3): 98.95%
- Growth Percent (HL-60(TB)): 107.54%
- Growth Percent (MDA-MB-231/ATCC): 90.47%
- Growth Percent (LOX IMVI): 95.76%
- Growth Percent (MDA-MB-435): 101.37%
- Growth Percent (SK-MEL-2): 101.39%
- Growth Percent (MOLT-4): 55.21%
- Growth Percent (COLO 205): 128.37%

SMILES: O=C1c2ccccc2C(=O)c2c1ccc1nc(CN3CCCCC3)[nH]c21 [CL16, 2-((piperidin-1-yl)methyl)-1H-anthra[1,2-d]imidazole-6,11-dione]
- Growth Percent, Mean [1]: 75.35%
- Growth Percent (EKVX): 77.14%
- Growth Percent (HCT-116): 62.12%
- Growth Percent (KM12): 77.40%
- Growth Percent (NCI-H322M): 92.47%
- Growth Percent (SK-MEL-5): 65.73%
- Growth Percent (NCI/ADR-RES): 73.52%
- Growth Percent (SNB-19): 76.33%
- Growth Percent (CCRF-CEM): 102.47%
- Growth Percent (SR): 57.64%
- Growth Percent (M14): 100.82%
- Growth Percent (MCF7): 42.74%
- Growth Percent (SK-MEL-28): 107.08%
- Growth Percent (BT-549): 109.47%
- Growth Percent (HCC-2998): 82.81%
- Growth Percent (SF-539): 82.47%
- Growth Percent (NCI-H226): 78.85%
- Growth Percent (PC-3): 81.94%
- Growth Percent (SK-OV-3): 92.54%
- Growth Percent (HL-60(TB)): 56.89%
- Growth Percent (MDA-MB-231/ATCC): 77.93%
- Growth Percent (LOX IMVI): 62.99%
- Growth Percent (MDA-MB-435): 102.02%
- Growth Percent (SK-MEL-2): 113.29%
- Growth Percent (MOLT-4): 22.77%
- Growth Percent (COLO 205): 74.65%
- viability at 72 h, 1 µM [2]: 111 ± 8.66%
- viability at 72 h, 100 µM ([2]; 100 μM): 19.6%

SMILES: CCN(CC)Cc1nc2ccc3c(c2[nH]1)C(=O)c1ccccc1C3=O [CL04, 2-((diethylamino)methyl)-1H-anthra[1,2-d]imidazole-6,11-dione]
- Growth Percent, Mean [1]: 69.66%
- Growth Percent (EKVX): 73.22%
- Growth Percent (HCT-116): 48.22%
- Growth Percent (KM12): 76.89%
- Growth Percent (NCI-H322M): 90.06%
- Growth Percent (SK-MEL-5): 68.20%
- Growth Percent (NCI/ADR-RES): 65.32%
- Growth Percent (SNB-19): 75.06%
- Growth Percent (CCRF-CEM): 47.88%
- Growth Percent (SR): 42.38%
- Growth Percent (M14): 97.86%
- Growth Percent (MCF7): 51.13%
- Growth Percent (SK-MEL-28): 92.41%
- Growth Percent (BT-549): 105.50%
- Growth Percent (HCC-2998): 80.61%
- Growth Percent (SF-295): 89.56%
- Growth Percent (SF-539): 85.26%
- Growth Percent (NCI-H226): 77.20%
- Growth Percent (SK-OV-3): 86.81%
- Growth Percent (HL-60(TB)): 68.18%
- Growth Percent (MDA-MB-231/ATCC): 75.52%
- Growth Percent (LOX IMVI): 61.98%
- Growth Percent (MDA-MB-435): 88.53%
- Growth Percent (SK-MEL-2): 102.69%
- Growth Percent (COLO 205): 81.00%
- viability at 72 h, 1 µM [2]: 101 ± 6.67%
- viability at 72 h, 10 µM [2]: > 50%

SMILES: CN(CCc1ccccn1)Cc1nc2ccc3c(c2[nH]1)C(=O)c1ccccc1C3=O [CL07, 2-((N-methyl-2-(pyridin-2-yl)ethanamino)methyl)-1H-anthra[1,2-d]imidazole-6,11-dione]
- Growth Percent, Mean [1]: 89.07%
- Growth Percent (EKVX): 82.24%
- Growth Percent (HCT-116): 83.56%
- Growth Percent (KM12): 89.03%
- Growth Percent (OVCAR-8): 80.59%
- Growth Percent (NCI-H322M): 102.29%
- Growth Percent (SK-MEL-5): 75.48%
- Growth Percent (NCI/ADR-RES): 86.11%
- Growth Percent (SNB-19): 87.77%
- Growth Percent (CCRF-CEM): 39.91%
- Growth Percent (SR): 70.10%
- Growth Percent (M14): 106.97%
- Growth Percent (MCF7): 69.06%
- Growth Percent (A549/ATCC): 106.30%
- Growth Percent (SK-MEL-28): 97.01%
- Growth Percent (BT-549): 114.38%
- Growth Percent (HCC-2998): 95.82%
- Growth Percent (SF-295): 105.86%
- Growth Percent (SF-539): 102.32%
- Growth Percent (NCI-H226): 81.36%
- Growth Percent (PC-3): 99.83%
- Growth Percent (SK-OV-3): 106.7%
- Growth Percent (HL-60(TB)): 120.08%
- Growth Percent (MDA-MB-231/ATCC): 88.98%
- Growth Percent (LOX IMVI): 89.67%
- Growth Percent (MDA-MB-435): 93.53%
- Growth Percent (SK-MEL-2): 95.03%
- Growth Percent (MOLT-4): 47.54%
- Growth Percent (COLO 205): 117.88%
- viability at 72 h, 1 µM [2]: 104.3 ± 0.96%

SMILES: CN1CCN(Cc2nc3ccc4c(c3[nH]2)C(=O)c2ccccc2C4=O)CC1 [CL24, 2-((4-methylpiperazin-1-yl)methyl)-1H-anthra[1,2-d]imidazole-6,11-dione]
- Growth Percent, Mean [1]: 59.85%
- Growth Percent (EKVX): 65.93%
- Growth Percent (HCT-116): 27.73%
- Growth Percent (KM12): 55.51%
- Growth Percent (NCI-H322M): 82.41%
- Growth Percent (SK-MEL-5): 77.46%
- Growth Percent (SNB-19): 65.60%
- Growth Percent (CCRF-CEM): 34.45%
- Growth Percent (SR): 21.48%
- Growth Percent (M14): 97.20%
- Growth Percent (MCF7): 36.71%
- Growth Percent (SK-MEL-28): 96.38%
- Growth Percent (BT-549): 100.53%
- Growth Percent (HCC-2998): 61.90%
- Growth Percent (SF-295): 81.61%
- Growth Percent (SF-539): 63.88%
- Growth Percent (NCI-H226): 64.48%
- Growth Percent (SK-OV-3): 74.33%
- Growth Percent (HL-60(TB)): 65.29%
- Growth Percent (MDA-MB-231/ATCC): 61.66%
- Growth Percent (LOX IMVI): 43.47%
- Growth Percent (MDA-MB-435): 86.53%
- Growth Percent (SK-MEL-2): 107.95%
- Growth Percent (COLO 205): 53.66%
- viability at 72 h, 1 µM [2]: 87.4 ± 5.52%
- viability at 72 h, 10 µM [2]: < 50%
